Assay results as given in PMC2913153 (Journal of the American Chemical Society, 2010).

Tests used:
[1] = system: FPR-negative U937 cells; experiment: Chemotaxis of FPR-negative U937 cells; format: cell-based; conditions: result in words
[2] = system: FPR; conditions: compared with fMLF; result in words; ref [13]; cited from earlier work

N-formyl-norleucine-leucine-phenylalanine [Compound 1]
chemotactic activity in FPR-negative U937 cells [1]: None of the compounds induce chemotactic activity | chemoattractant potency relative to fMLF [2]: less potent than fMLF
